We go through 2 compounds from EP4806892A1, “CEREBLON E3 UBIQUITIN LIGASE INHIBITOR” (GAN & LEE PHARMACEUTICALS CO., LTD., priority 2023, dated 2025).

What all share (type): cell-based
One experiment deals with MCF-7 cells. Description: MCF-7 cell proliferation inhibition (CCK-8). The conditions noted are these: Homo sapiens, MCF7, 144 h, 6 days. As to the method: The complete culture medium required for breast cancer MCF-7 cells (source ATCC) is DMEM (gibco, Product number: 11995-065) basal medium containing 10% fetal bovine serum. MCF-7 cells were seeded in 96-well plates at a density of 800 cells/well, and different concentrations of PROTAC compounds 1-55 provided in the embodiments of the present invention and the positive control sample ARV-471 (source: Inokai) were prepared to treat cells. The cells were incubated at 37 °C and 5% CO2 in a cell culture incubator for 6 days. Cell viability was detected using a CCK-8 kit (Beyotime, Product number: C0040) according to the manufacturer's instructions. The IC50 value of each PROTAC compound for 6 days was calculated using GraphPad Prism software based on the inhibition rate. Table 7: IC50 value for the inhibition of MCF-7 cell proliferation by PROTAC compounds of the present disclosure and positive control sample

Experiment [1] concerns the target T1, ERα (Homo sapiens, UniProt P03372).
T1 sequence (P03372 1-595): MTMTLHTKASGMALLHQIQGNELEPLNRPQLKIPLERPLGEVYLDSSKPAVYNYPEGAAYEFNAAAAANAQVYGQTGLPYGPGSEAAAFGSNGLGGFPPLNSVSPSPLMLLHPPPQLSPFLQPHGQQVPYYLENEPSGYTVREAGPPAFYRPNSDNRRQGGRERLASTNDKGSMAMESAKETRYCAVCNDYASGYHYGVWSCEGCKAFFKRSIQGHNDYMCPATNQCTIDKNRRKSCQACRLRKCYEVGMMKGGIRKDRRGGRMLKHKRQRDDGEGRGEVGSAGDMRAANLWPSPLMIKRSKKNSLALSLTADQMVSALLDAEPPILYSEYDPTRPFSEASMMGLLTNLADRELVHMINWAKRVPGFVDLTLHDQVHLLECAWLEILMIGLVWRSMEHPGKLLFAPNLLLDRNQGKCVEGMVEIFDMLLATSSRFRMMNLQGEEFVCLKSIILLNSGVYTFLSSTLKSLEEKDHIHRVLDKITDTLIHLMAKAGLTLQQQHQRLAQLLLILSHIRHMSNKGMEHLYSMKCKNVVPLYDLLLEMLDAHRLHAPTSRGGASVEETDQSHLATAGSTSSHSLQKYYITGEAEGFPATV
Description: ERα degradation in T-47D cells (immunoblot). The conditions noted are these: 10 nM, 4 hours. The arrangement: host or cells: T-47D. On the procedure: T-47D (ATCC) cells were cultured in PRMI-1640 medium (30-2001, ATCC) containing 10% FBS (10099141C, Gibco) at 37°C and 5% CO2 until they entered the logarithmic growth phase. T-47D cells were seeded onto 6-well plates at a density of 3×10^5 cells per well, and incubated at 37°C with 5% CO2 for 24 hours. After cell attachment, 1 µL of compound in dimethyl sulfoxide solution (final concentration 0.15-1000 nM) was added and the cells were incubated for another 4 hours at 37°C, 5% CO2. After 4 hours, the culture medium was discarded, and each well was washed once with 1 mL of pre-chilled 1× DPBS. The cells were then lysed with 50 µL of RIPA lysis buffer (P0013B, Beyotime) and 1× protease inhibitor cocktail (P1005, Beyotime). After incubation on ice for 20 minutes, the cells were centrifuged at 14,000 g at 4°C for 30 minutes. The supernatant was carefully collected and analyzed for ERα protein levels by immunoblotting.
Background: Immunoblotting shows a protein as a band on a membrane.

Another experiment has as its system T-47D cells. Description: T-47D cell proliferation inhibition (CCK-8). The settings on record: Homo sapiens, T47D, 144 h, 6 days. On the procedure:
The complete culture medium required for breast ductal carcinoma T-47D cells is 1640 (ATCC, Product number: A10491-01) basal medium containing 10% fetal bovine serum. T-47D cells were seeded in 96-well plates at a density of 3,000/well, and different concentrations of PROTAC compounds 1-55 provided in the embodiments of the present invention and the positive control sample ARV-471 (source: Inokai) were prepared to treat the cells and incubated at 37°C, 5% CO2 in a cell culture incubator for 6 days. According to the manufacturer's instructions, the CCK-8 kit (Beyotime, Product number: C0040) was used to detect cell viability. The IC50 of each compound for 6 days was calculated using GraphPadPrism software based on the inhibition rate. Table 6: IC50 value for the inhibition of T-47D cell proliferation by PROTAC compounds and positive control sample

Experiment [2] concerns the target T1, ERα. Description: ERα degradation in MCF-7 cells (Western blot). The settings on record: 10 nM, 4 hours. On the procedure: MCF-7 (ATCC) cells were cultured in DMEM medium (11995-065, Gibco) containing 10% FBS (10099141C, Gibco) at 37°C and 5% CO2 until they entered the logarithmic growth phase. MCF-7 cells were seeded at a density of 3×10^5 cells/well in a 6-well plate and incubated at 37°C, 5% CO2 for 24 hours. After cell attachment, 1 µL of compound in dimethyl sulfoxide solution (final concentration 0.15-1000 nM) was added and the cells were incubated for another 4 hours at 37°C, 5% CO2. After 4 hours, the culture medium was discarded, and each well was washed once with 1 mL of pre-chilled 1× DPBS. […] The supernatant was carefully collected and analyzed for ERα protein levels by immunoblotting.
Western blotting: The total protein concentration in the collected cell lysate supernatant was determined using the BCA protein concentration assay kit (enhanced) (P0009, Beyotime). Based on the total protein concentration determined by BCA, the protein concentration was adjusted to 1 µg/µL using RIPA lysis buffer and 5× SDS-PAGE protein loading buffer (MB01015, GenScript). […] Protein maps were analyzed for grayscale values using Image Studio Lite software. The grayscale correction value for each sample was calculated using the formula: grayscale correction value = grayscale value of the target protein / grayscale value of the corresponding internal reference. […]

Usually IC50 stands for the concentration that inhibits the measured activity by half. In the experiment with MCF-7 cells, `O=C1CCN(c2ccc3c(c2)CC2(CCN(C[C@H]4CC[C@@H](OC5CCN(c6ccc([C@@H]7c8ccc(O)cc8CC[C@@H]7c7ccccc7)cc6)CC5)CC4)CC2)O3)C(=O)N1` [ER-P-1, 1-(1'-(((1S,4S)-4-((1-(4-((1R,2S)-6-hydroxy-2-phenyl-1,2,3,4-tetrahydro-naphthalen-1-yl)phenyl)piperidin-4-yl)oxy)cyclohexyl)methyl)-3H-spiro [benzofuran-2,4'-piperidine]-5-yl)dihydropyrimidine-2,4(1H,3H)-dione] came in with a concentration for half-maximal inhibition (IC50) of 845 nM. In addition, the “degradation rate of ERα in T-47D cells” value at ERα [1] was “greater than or equal to 30%”.
`O=C1CCN(c2ccc3c(c2)OCC[C@H]2CN(C[C@H]4CC[C@@H](OC5CCN(c6ccc([C@@H]7c8ccc(O)cc8CC[C@@H]7c7ccccc7)cc6)CC5)CC4)CCN32)C(=O)N1` [ER-P-2, 1-((S)-3-(((1S,4R)-4-((1-(4-((1R,2S)-6-hydroxy-2-phenyl-1,2,3,4-tetrahydronaphthalen-1-yl)phenyl)piperidin-4-yl)oxy)cyclohexyl)methyl)-2,3,4,4a,5,6-hexahydro-1H-benzo[b]pyrazino[1,2-d][1,4]oxazepin-9-yl)dihydropyrimidine-2,4(1H,3H)-dione] returned an IC50 in the experiment on T-47D cells of 21.7 nM. The “degradation rate of ERα in MCF-7 cells” value at ERα [2] is recorded as “greater than or equal to 30%”.
